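Briefly, cells in 96-well plates were exposed to five compound concentrations for 48 h, and endpoints were estimated by linear interpolation. TGI: total growth inhibition.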
Legend:
Test in all cases: NCI-60 cell line screen, 48 h
SF-268 CNS = tested on: SF-268 CNS
CCRF-CEM leukemia = tested on: CCRF-CEM leukemia
EKVX NSCLC = tested on: EKVX NSCLC
UO-31 renal = tested on: UO-31 renal
BT-549 breast = tested on: BT-549 breast
U251 CNS = tested on: U251 CNS
NCI/ADR-RES ovarian = tested on: NCI/ADR-RES ovarian
A498 renal = tested on: A498 renal
OVCAR-4 ovarian = tested on: OVCAR-4 ovarian
MALME-3M melanoma = tested on: MALME-3M melanoma
UACC-257 melanoma = tested on: UACC-257 melanoma
786-0 renal = tested on: 786-0 renal
MDA-N = tested on: MDA-N
K-562 leukemia = tested on: K-562 leukemia
M14 melanoma = tested on: M14 melanoma
OVCAR-5 ovarian = tested on: OVCAR-5 ovarian
SNB-19 CNS = tested on: SNB-19 CNS
DU-145 prostate = tested on: DU-145 prostate
TK-10 renal = tested on: TK-10 renal
HL-60(TB) leukemia = tested on: HL-60(TB) leukemia
RPMI-8226 leukemia = tested on: RPMI-8226 leukemia
IGROV1 ovarian = tested on: IGROV1 ovarian
COLO 205 colon = tested on: COLO 205 colon
NCI-H226 lung = tested on: NCI-H226 lung
MOLT-4 leukemia = tested on: MOLT-4 leukemia
NCI-H23 lung = tested on: NCI-H23 lung
SK-MEL-28 melanoma = tested on: SK-MEL-28 melanoma
HS 578T breast = tested on: HS 578T breast
OVCAR-3 ovarian = tested on: OVCAR-3 ovarian
RXF 393 renal = tested on: RXF 393 renal
MDA-MB-231 breast = tested on: MDA-MB-231 breast
NCI-H460 lung = tested on: NCI-H460 lung
HCT-15 colon = tested on: HCT-15 colon
HT29 colon = tested on: HT29 colon
CAKI-1 renal = tested on: CAKI-1 renal
SK-OV-3 ovarian = tested on: SK-OV-3 ovarian
ACHN renal = tested on: ACHN renal
SN12C renal = tested on: SN12C renal
MDA-MB-435 = tested on: MDA-MB-435
NCI-H522 lung = tested on: NCI-H522 lung
PC-3 prostate = tested on: PC-3 prostate
OVCAR-8 ovarian = tested on: OVCAR-8 ovarian
SF-295 CNS = tested on: SF-295 CNS
HCT-116 colon = tested on: HCT-116 colon
SW-620 colon = tested on: SW-620 colon
SF-539 CNS = tested on: SF-539 CNS
A549 NSCLC = tested on: A549 NSCLC
KM12 colon = tested on: KM12 colon
SK-MEL-5 melanoma = tested on: SK-MEL-5 melanoma
HOP-62 NSCLC = tested on: HOP-62 NSCLC
SK-MEL-2 melanoma = tested on: SK-MEL-2 melanoma
UACC-62 melanoma = tested on: UACC-62 melanoma
HCC-2998 colon = tested on: HCC-2998 colon
T-47D breast = tested on: T-47D breast
LOX IMVI melanoma = tested on: LOX IMVI melanoma
HOP-92 NSCLC = tested on: HOP-92 NSCLC
SNB-75 CNS = tested on: SNB-75 CNS
SR leukemia = tested on: SR leukemia
MCF7 breast = tested on: MCF7 breast

c1ccc(C2CC(N3CCOCC3)=Nc3ccccc3N2)cc1 (configuration not stated)
TGI (SF-268 CNS): > 100 µM | TGI (CCRF-CEM leukemia): > 100 µM | TGI (EKVX NSCLC): > 100 µM | TGI (UO-31 renal): > 100 µM | TGI (BT-549 breast): > 100 µM | TGI (U251 CNS): > 100 µM | TGI (NCI/ADR-RES ovarian): > 100 µM | TGI (A498 renal): > 100 µM | TGI (OVCAR-4 ovarian): > 100 µM | TGI (MALME-3M melanoma): > 100 µM | TGI (UACC-257 melanoma): > 100 µM | TGI (786-0 renal): > 100 µM | TGI (MDA-N): > 100 µM | TGI (K-562 leukemia): > 100 µM | TGI (M14 melanoma): > 100 µM | TGI (OVCAR-5 ovarian): > 100 µM | TGI (SNB-19 CNS): > 100 µM | TGI (DU-145 prostate): > 100 µM | TGI (TK-10 renal): > 100 µM | TGI (HL-60(TB) leukemia): > 100 µM | TGI (RPMI-8226 leukemia): > 100 µM | TGI (IGROV1 ovarian): > 100 µM | TGI (COLO 205 colon): > 100 µM | TGI (NCI-H226 lung): > 100 µM | TGI (MOLT-4 leukemia): > 100 µM | TGI (NCI-H23 lung): > 100 µM | TGI (SK-MEL-28 melanoma): > 100 µM | TGI (HS 578T breast): > 100 µM | TGI (OVCAR-3 ovarian): > 100 µM | TGI (RXF 393 renal): > 100 µM | TGI (MDA-MB-231 breast): > 100 µM | TGI (NCI-H460 lung): > 100 µM | TGI (HCT-15 colon): > 100 µM | TGI (HT29 colon): > 100 µM | TGI (CAKI-1 renal): > 100 µM | TGI (SK-OV-3 ovarian): > 100 µM | TGI (ACHN renal): > 100 µM | TGI (SN12C renal): > 100 µM | TGI (MDA-MB-435): > 100 µM | TGI (NCI-H522 lung): > 100 µM | TGI (PC-3 prostate): > 100 µM | TGI (OVCAR-8 ovarian): > 100 µM | TGI (SF-295 CNS): > 100 µM | TGI (HCT-116 colon): > 100 µM | TGI (SW-620 colon): > 100 µM | TGI (SF-539 CNS): > 100 µM | TGI (A549 NSCLC): > 100 µM | TGI (KM12 colon): > 100 µM | TGI (SK-MEL-5 melanoma): > 100 µM | TGI (HOP-62 NSCLC): > 100 µM | TGI (SK-MEL-2 melanoma): > 100 µM | TGI (UACC-62 melanoma): > 100 µM

COc1ccc(OC)c(C2CCc3cnc4nc(N)nc(N)c4c3C2)c1 (configuration not stated)
TGI (SF-268 CNS): > 100 µM | TGI (CCRF-CEM leukemia): > 100 µM | TGI (HCC-2998 colon): > 100 µM | TGI (T-47D breast): > 100 µM | TGI (EKVX NSCLC): > 100 µM | TGI (UO-31 renal): 85.3 µM | TGI (BT-549 breast): > 100 µM | TGI (U251 CNS): > 100 µM | TGI (NCI/ADR-RES ovarian): > 100 µM | TGI (A498 renal): > 100 µM | TGI (OVCAR-4 ovarian): > 100 µM | TGI (MALME-3M melanoma): > 100 µM | TGI (UACC-257 melanoma): > 100 µM | TGI (786-0 renal): > 100 µM | TGI (MDA-N): > 100 µM | TGI (K-562 leukemia): > 100 µM | TGI (M14 melanoma): > 100 µM | TGI (OVCAR-5 ovarian): > 100 µM | TGI (SNB-19 CNS): > 100 µM | TGI (DU-145 prostate): > 100 µM | TGI (TK-10 renal): > 100 µM | TGI (HL-60(TB) leukemia): > 100 µM | TGI (LOX IMVI melanoma): > 100 µM | TGI (RPMI-8226 leukemia): > 100 µM | TGI (IGROV1 ovarian): > 100 µM | TGI (COLO 205 colon): > 100 µM | TGI (MOLT-4 leukemia): > 100 µM | TGI (NCI-H23 lung): > 100 µM | TGI (SK-MEL-28 melanoma): > 100 µM | TGI (HS 578T breast): > 100 µM | TGI (OVCAR-3 ovarian): > 100 µM | TGI (RXF 393 renal): 83.3 µM | TGI (MDA-MB-231 breast): > 100 µM | TGI (NCI-H460 lung): > 100 µM | TGI (HCT-15 colon): > 100 µM | TGI (HT29 colon): > 100 µM | TGI (HOP-92 NSCLC): > 100 µM | TGI (CAKI-1 renal): > 100 µM | TGI (SK-OV-3 ovarian): > 100 µM | TGI (ACHN renal): > 100 µM | TGI (SN12C renal): > 100 µM | TGI (MDA-MB-435): > 100 µM | TGI (NCI-H522 lung): > 100 µM | TGI (SNB-75 CNS): 50.1 µM | TGI (PC-3 prostate): > 100 µM | TGI (OVCAR-8 ovarian): > 100 µM | TGI (SF-295 CNS): > 100 µM | TGI (HCT-116 colon): > 100 µM | TGI (SW-620 colon): > 100 µM | TGI (A549 NSCLC): > 100 µM | TGI (KM12 colon): > 100 µM | TGI (SK-MEL-5 melanoma): > 100 µM | TGI (SR leukemia): > 100 µM | TGI (HOP-62 NSCLC): > 100 µM | TGI (SK-MEL-2 melanoma): > 100 µM | TGI (MCF7 breast): > 100 µM | TGI (UACC-62 melanoma): > 100 µM

COC(=O)C(Cc1ccccc1)NS(=O)(=O)c1ccc(-c2c3nc(c(-c4ccc(S(=O)(=O)NC(Cc5ccccc5)C(=O)OC)cc4)c4ccc([nH]4)c(-c4ccc(S(=O)(=O)NC(Cc5ccccc5)C(=O)OC)cc4)c4nc(c(-c5ccc(S(=O)(=O)NC(Cc6ccccc6)C(=O)OC)cc5)c5ccc2[nH]5)C=C4)C=C3)cc1 (configuration not stated)
TGI (SF-268 CNS): > 100 µM | TGI (CCRF-CEM leukemia): > 100 µM | TGI (HCC-2998 colon): > 100 µM | TGI (T-47D breast): > 100 µM | TGI (EKVX NSCLC): > 100 µM | TGI (UO-31 renal): > 100 µM | TGI (BT-549 breast): > 100 µM | TGI (U251 CNS): > 100 µM | TGI (NCI/ADR-RES ovarian): > 100 µM | TGI (A498 renal): > 100 µM | TGI (OVCAR-4 ovarian): > 100 µM | TGI (MALME-3M melanoma): > 100 µM | TGI (UACC-257 melanoma): > 100 µM | TGI (786-0 renal): > 100 µM | TGI (MDA-N): > 100 µM | TGI (K-562 leukemia): > 100 µM | TGI (M14 melanoma): > 100 µM | TGI (OVCAR-5 ovarian): > 100 µM | TGI (SNB-19 CNS): > 100 µM | TGI (DU-145 prostate): > 100 µM | TGI (TK-10 renal): > 100 µM | TGI (HL-60(TB) leukemia): > 100 µM | TGI (LOX IMVI melanoma): > 100 µM | TGI (RPMI-8226 leukemia): > 100 µM | TGI (IGROV1 ovarian): > 100 µM | TGI (COLO 205 colon): > 100 µM | TGI (MOLT-4 leukemia): > 100 µM | TGI (NCI-H23 lung): > 100 µM | TGI (SK-MEL-28 melanoma): > 100 µM | TGI (HS 578T breast): 62 µM | TGI (OVCAR-3 ovarian): > 100 µM | TGI (RXF 393 renal): > 100 µM | TGI (MDA-MB-231 breast): > 100 µM | TGI (NCI-H460 lung): > 100 µM | TGI (HCT-15 colon): > 100 µM | TGI (HT29 colon): > 100 µM | TGI (HOP-92 NSCLC): > 100 µM | TGI (CAKI-1 renal): > 100 µM | TGI (SK-OV-3 ovarian): > 100 µM | TGI (ACHN renal): > 100 µM | TGI (SN12C renal): > 100 µM | TGI (MDA-MB-435): > 100 µM | TGI (NCI-H522 lung): > 100 µM | TGI (SNB-75 CNS): 31.5 µM | TGI (PC-3 prostate): > 100 µM | TGI (OVCAR-8 ovarian): > 100 µM | TGI (SF-295 CNS): > 100 µM | TGI (HCT-116 colon): > 100 µM | TGI (SW-620 colon): > 100 µM | TGI (SF-539 CNS): > 100 µM | TGI (A549 NSCLC): > 100 µM | TGI (KM12 colon): > 100 µM | TGI (SK-MEL-5 melanoma): > 100 µM | TGI (SR leukemia): > 100 µM | TGI (HOP-62 NSCLC): > 100 µM | TGI (SK-MEL-2 melanoma): > 100 µM | TGI (MCF7 breast): > 100 µM | TGI (UACC-62 melanoma): > 100 µM

Source: PubChem BioAssay (NCI)
